From PubChem BioAssay (NCI)
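Five compound concentrations were applied to cells in 96-well plates for 48 hours; endpoints were derived by simple linear interpolation of the resulting dose-response curve. At the TGI there is no net growth.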

Tests used:
Experiment in all cases: NCI-60 cell line screen, 48 h
[1] = tested on: U251 CNS
[2] = tested on: NCI-H460 lung
[3] = tested on: OVCAR-8 ovarian
[4] = tested on: NCI/ADR-RES ovarian
[5] = tested on: OVCAR-3 ovarian
[6] = tested on: HCT-116 colon
[7] = tested on: SF-268 CNS
[8] = tested on: LOX IMVI melanoma
[9] = tested on: SNB-19 CNS
[10] = tested on: SN12C renal
[11] = tested on: UACC-257 melanoma
[12] = tested on: RPMI-8226 leukemia
[13] = tested on: T-47D breast
[14] = tested on: A498 renal
[15] = tested on: MCF7 breast
[16] = tested on: ACHN renal
[17] = tested on: OVCAR-4 ovarian
[18] = tested on: A549 NSCLC
[19] = tested on: SK-MEL-5 melanoma
[20] = tested on: 786-0 renal
[21] = tested on: COLO 205 colon
[22] = tested on: SF-295 CNS
[23] = tested on: HCT-15 colon
[24] = tested on: SK-MEL-2 melanoma
[25] = tested on: MOLT-4 leukemia
[26] = tested on: SK-OV-3 ovarian
[27] = tested on: TK-10 renal
[28] = tested on: HL-60(TB) leukemia
[29] = tested on: HOP-92 NSCLC
[30] = tested on: UO-31 renal
[31] = tested on: OVCAR-5 ovarian
[32] = tested on: MALME-3M melanoma
[33] = tested on: HCC-2998 colon
[34] = tested on: K-562 leukemia
[35] = tested on: SK-MEL-28 melanoma
[36] = tested on: SF-539 CNS
[37] = tested on: MDA-N
[38] = tested on: HT29 colon
[39] = tested on: NCI-H226 lung
[40] = tested on: NCI-H23 lung
[41] = tested on: HS 578T breast
[42] = tested on: NCI-H522 lung
[43] = tested on: DU-145 prostate
[44] = tested on: CCRF-CEM leukemia
[45] = tested on: PC-3 prostate
[46] = tested on: BT-549 breast
[47] = tested on: SW-620 colon
[48] = tested on: UACC-62 melanoma
[49] = tested on: MDA-MB-435
[50] = tested on: M14 melanoma
[51] = tested on: MDA-MB-231 breast
[52] = tested on: CAKI-1 renal
[53] = tested on: EKVX NSCLC
[54] = tested on: HOP-62 NSCLC
[55] = tested on: KM12 colon
[56] = tested on: SNB-75 CNS
[57] = tested on: IGROV1 ovarian
[58] = tested on: RXF 393 renal

Measured: TGI

CN(Cc1ccccc1)c1cc(=O)n(C)c(=O)[nH]1
> 100 µM: [1] | [2] | [3] | [4] | [5] | [6] | [7] | [8] | [9] | [10] | [11] | [12] | [13] | [14] | [15] | [16] | [17] | [18] | [19] | [20] | [21] | [22] | [23] | [24] | [25] | [26] | [27] | [28] | [29] | [30] | [31] | [32] | [33] | [34] | [35] | [36] | [37] | [38] | [39] | [40] | [41] | [42] | [43] | [44] | [45] | [46] | [47] | [48] | [49] | [50] | [51] | [52]

O=C(Cc1ccccc1)NN1C(=O)/C(=C\c2ccccc2)SC1=Nc1ccccc1
> 100 µM: [1] | [2] | [3] | [4] | [5] | [6] | [7] | [53] | [9] | [10] | [54] | [11] | [13] | [14] | [15] | [16] | [17] | [18] | [55] | [19] | [20] | [21] | [56] | [22] | [23] | [24] | [25] | [26] | [27] | [29] | [30] | [31] | [33] | [35] | [36] | [37] | [38] | [39] | [40] | [41] | [43] | [46] | [47] | [48] | [49] | [50] | [57] | [58] | [51]
